Patent US20220324835A1 (Nurix Therapeutics, Inc., priority 2018, published 2022)

Tests used:
T-cell [1] = assay: CD25 cell surface staining on T-cells stimulated with anti-CD3 antibody alone (Biological Example 2); format: cell-based, human; settings: T-cell, fold change over baseline, primary human total T-cells, read-out: CD25 staining Anti-CD3 stimulation; for fold induction at 1 µM: 1 μM Cbl-b inhibitor; for fold induction at 8 µM: 8 μM Cbl-b inhibitor
T-cell [2] = assay: IL-2 secretion from T-cells stimulated with anti-CD3 antibody alone (Biological Example 2); format: cell-based, human; settings: T-cell, fold change over baseline, primary human total T-cells, read-out: IL-2 secretion Anti-CD3 stimulation; for fold induction at 1 µM: 1 μM Cbl-b inhibitor; for fold induction at 8 µM: 8 μM Cbl-b inhibitor
Cbl-b [3] = molecular target: T1, Cbl-b (Homo sapiens, UniProt Q13191); assay: Cbl-b inhibition assay (Cbl-b activity assay, FRET, Biological Example 1; 100 mM NaCl, 60 nM Src kinase); format: biochemical; settings: upper bound stated in text lists; read-out: IC50 values in the Cbl-b inhibition assay of Biological Example 1
How it was run: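 Inhibition is read as loss of FRET signal. The signal arises when Src-phosphorylated, N-terminal biotinylated Avi-Cbl-b (captured by streptavidin-terbium) binds UbcH5B carrying covalently linked Bodipy-Fluorescein-tagged ubiquitin.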

Cbl-b [4] = molecular target: T1, Cbl-b; assay: Cbl-b activity assay (Cbl-b inhibition assay), TR-FRET of Cbl-b interaction with UbcH5B-Ub; format: biochemical
How it was run: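 TR-FRET readout of Cbl-b binding to Bodipy-fluorescein N-terminally labeled Ub conjugated to UbcH5B C85K, measured with compound present. After compound incubation, 60 nM Src kinase with 1 mM ATP and 5 mM MgCl2 (final) was added for 1.5 h, then a further 1 h incubation; asterisked values used 50 mM NaCl buffer and 30 nM Src.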

T-cell [5] = assay: CD25 cell surface staining on T-cells co-stimulated with anti-CD3 and anti-CD28 antibody (Biological Example 2); format: cell-based, human; settings: Homo sapiens, T-cell, fold change over baseline, primary human total T-cells, read-out: CD25 staining Anti-CD3/Anti-CD28 stimulation; for fold induction at 0.3 µM: 0.3 μM Cbl-b inhibitor; for fold induction at 1 µM: 1 μM Cbl-b inhibitor; for fold induction at 4 µM: 4 μM Cbl-b inhibitor
How it was run: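 No assay protocol given; T-cells stimulated with anti-CD3 alone or anti-CD3 plus anti-CD28, with or without Cbl-b inhibitor. Activation read as IL-2 secretion or CD25 surface staining, expressed as fold over baseline from uninhibited cells […].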

[6] = assay buffer with 100 mM NaCl, 60 nM Src kinase, read-out: Cbl-b activity IC50

T1 sequence (Q13191 36-427): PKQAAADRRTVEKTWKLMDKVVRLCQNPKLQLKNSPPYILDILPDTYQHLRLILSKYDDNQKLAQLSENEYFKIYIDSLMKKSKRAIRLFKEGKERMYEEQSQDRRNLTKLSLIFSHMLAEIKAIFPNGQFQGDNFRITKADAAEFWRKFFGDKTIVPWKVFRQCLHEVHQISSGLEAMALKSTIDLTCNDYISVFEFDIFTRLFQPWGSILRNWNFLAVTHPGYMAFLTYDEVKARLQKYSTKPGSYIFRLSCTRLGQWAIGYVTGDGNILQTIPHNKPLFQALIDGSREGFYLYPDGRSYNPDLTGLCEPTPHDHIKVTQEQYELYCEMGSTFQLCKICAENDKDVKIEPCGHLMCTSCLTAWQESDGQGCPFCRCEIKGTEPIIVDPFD

Structure (SMILES) | fold induction at 1 µM (T-cell [1]) | fold induction at 8 µM (T-cell [1]) | fold induction at 1 µM (T-cell [2]) | fold induction at 8 µM (T-cell [2]) | IC50 (Cbl-b [3]) [nM] | IC50 (Cbl-b [4]; [6]) [µM] | fold induction at 0.3 µM (T-cell [5]) | fold induction at 1 µM (T-cell [5]) | fold induction at 4 µM (T-cell [5]) | IC50 (Cbl-b [4]; * assay buffer containing 50 mM NaCl instead of 100 mM NaCl and 30 nM Src kinase instead of 60 nM, read-out: Cbl-b activity IC50 (μM)*) [µM]
C[C@H](Sc1nncn1C)c1cccc(NC(=O)c2ccnc(C(F)(F)F)n2)c1 [Compound 75, N-[3-[(1S)-1-[(4-methyl-1,2,4-triazol-3-yl)sulfanyl]ethyl]phenyl]-2-(trifluoromethyl)pyrimidine-4-carboxamide] | 0.601 to 0.8 | 0.801 to 1 | < 0.05 | 0.051 to 0.1 | ≤ 500 | 0.301 to 1 | 1.01 to 1.3 | 1.01 to 1.3 | 1.01 to 1.3 | –
C[C@H](Sc1nncn1C)c1cccc(NC(=O)c2cncc(C(F)(F)F)n2)c1 [Compound 77, N-[3-[(1S)-1-[(4-methyl-1,2,4-triazol-3-yl)sulfanyl]ethyl]phenyl]-6-(trifluoromethyl)pyrazine-2-carboxamide] | < 0.6 | 0.601 to 0.8 | < 0.05 | < 0.05 | ≤ 500 | 0.301 to 1 | < 1 | 1.01 to 1.3 | 1.01 to 1.3 | –
C[C@H](Sc1nncn1C)c1cccc(NC(=O)c2cc3c(Cl)cccc3[nH]2)c1 [Compound 78, 4-chloro-A-[3-[(LS)-1-[(4-methyl-1,2,4-triazol-3-yl)sulfanyl]ethyl]phenyl]-1H-indole-2-carboxamide] | 0.601 to 0.8 | 0.801 to 1 | < 0.05 | > 0.201 | ≤ 500 | 0.1 to 0.3 | < 1 | 1.01 to 1.3 | 1.01 to 1.3 | –
C[C@H](Sc1nncn1C)c1cccc(NC(=O)c2cccc(S(C)(=O)=O)n2)c1 [Compound 80, (S)-N-(3-(1-((4-methyl-4H-1,2,4-triazol-3-yl)thio)ethyl)phenyl)-6-(methylsulfonyl)picolinamide] | < 0.6 | < 0.6 | < 0.05 | < 0.05 | ≤ 10000 | 1 to 3 | 1.01 to 1.3 | 1.01 to 1.3 | 1.01 to 1.3 | –
C[C@H](Sc1nncn1C)c1cccc(NC(=O)c2cccc(C(C)(F)F)n2)c1 [Compound 81, (S)-6-(1,1-difluoroethyl)-N-(3-(1-((4-methyl-4H-1,2,4-triazol-3-yl)thio)ethyl)phenyl)picolinamide] | 0.801 to 1 | > 1 | < 0.05 | 0.151 to 0.2 | ≤ 500 | 0.1 to 0.3 | 1.01 to 1.3 | 1.51 to 1.75 | > 1.76 | –
C[C@H](Sc1nncn1C)c1cccc(NC(=O)c2cc(C(C)(C)O)cc(C(F)(F)F)n2)c1 [Compound 85, 4-(1-hydroxy-1-methyl-ethyl)-N-[3-[(1S)-1-[(4-methyl-1,2,4-triazol-3-yl)sulfanyl]ethyl]phenyl]-6-(trifluoromethyl)pyridine-2-carboxamide] | 0.601 to 0.8 | > 1 | < 0.05 | < 0.05 | ≤ 500 | 0.1 to 0.3 | 1.01 to 1.3 | 1.01 to 1.3 | 1.01 to 1.3 | –
C[C@H](Sc1nncn1C)c1ccc(F)c(NC(=O)c2cccc(C(F)(F)F)n2)c1 [Compound 95a, (S)-N-(2-fluoro-5-(1-((4-methyl-4H-1,2,4-triazol-3-yl)thio)ethyl)phenyl)-6-(trifluoromethyl)picolinamide] | < 0.6 | < 0.6 | < 0.05 | 0.051 to 0.1 | ≤ 500 | 0.301 to 1 | < 1 | 1.01 to 1.3 | 1.01 to 1.3 | –
C[C@H](Sc1nnc[nH]1)c1cccc(NC(=O)c2cc3ccccc3cn2)c1 [Compound 98, (S)-N-(3-(1-((4H-1,2,4-triazol-3-yl)thio)ethyl)phenyl)isoquinoline-3-carboxamide] | < 0.6 | < 0.6 | 0.051 to 0.1 | 0.051 to 0.1 | ≤ 1000 | 0.301 to 1 | < 1 | < 1 | < 1 | 1 to 3
Cc1cc(C(=O)Nc2cc([C@H](C)Sc3nncn3C)ccn2)nc(C(F)(F)F)c1 [Compound 103, (S)-4-methyl-N-(4-(1-((4-methyl-4H-1,2,4-triazol-3-yl)thio)ethyl)pyridin-2-yl)-6-(trifluoromethyl)picolinamide] | < 0.6 | 0.801 to 1 | < 0.05 | 0.051 to 0.1 | ≤ 1000 | 0.301 to 1 | < 1 | < 1 | 1.01 to 1.3 | –
C[C@H](Sc1nncn1C)c1ccnc(NC(=O)c2cc(C3CC3)cc(C(F)(F)F)n2)c1 [Compound 104, (S)-4-cyclopropyl-N-(4-(1-((4-methyl-4H-1,2,4-triazol-3-yl)thio)ethyl)pyridin-2-yl)-6-(trifluoromethyl)picolinamide] | 0.601 to 0.8 | 0.801 to 1 | < 0.05 | < 0.05 | ≤ 1000 | 0.301 to 1 | < 1 | < 1 | 1.01 to 1.3 | –
C[C@H](Sc1nncn1C)c1ccnc(NC(=O)c2cc(Cl)cc(C(F)(F)F)n2)c1 [Compound 105, (S)-4-chloro-N-(4-(1-((4-methyl-4H-1,2,4-triazol-3-yl)thio)ethyl)pyridin-2-yl)-6-(trifluoromethyl)picolinamide] | < 0.6 | 0.601 to 0.8 | < 0.05 | < 0.05 | ≤ 1000 | 0.301 to 1 | 1.01 to 1.3 | 1.01 to 1.3 | < 1 | –
Cc1ccc(C(=O)Nc2cc([C@H](C)Sc3nncn3C)ccn2)nc1C1CC1 [Compound 113, (S)-6-cyclopropyl-5-methyl-N-(4-(1-((4-methyl-4H-1,2,4-triazol-3-yl)thio)ethyl)pyridin-2-yl)picolinamide] | < 0.6 | < 0.6 | < 0.05 | < 0.05 | ≤ 1000 | 0.301 to 1 | < 1 | < 1 | 1.01 to 1.3 | –
C[C@H](Sc1nncn1C)c1ccnc(NC(=O)c2cc3c(C(F)(F)F)cccc3[nH]2)c1 [Compound 120, N-[4-[(1S)-1-[(4-methyl-1,2,4-triazol-3-yl)sulfanyl]ethyl]-2-pyridyl]-4-(trifluoromethyl)-1H-indole-2-carboxamide] | < 0.6 | < 0.6 | < 0.05 | < 0.05 | ≤ 500 | 0.1 to 0.3 | < 1 | < 1 | < 1 | –
Cc1nc2cc([C@H](C)Sc3nncn3C)cc(NC(=O)c3cccc(C(F)(F)F)n3)c2o1 [Compound 130a, (S)-N-(2-methyl-5-(1-((4-methyl-4H-1,2,4-triazol-3-yl)thio)ethyl)benzo[d]oxazol-7-yl)-6-(trifluoromethyl)picolinamide] | 0.601 to 0.8 | > 1 | < 0.05 | > 0.201 | ≤ 1000 | 0.301 to 1 | 1.31 to 1.5 | 1.51 to 1.75 | > 1.76 | –
C[C@H](Sc1nncn1C)c1cccc(NC(=O)c2cc(C(=O)N3CC[C@H](O)C3)ccn2)c1 [Compound 140, 4-[[(3S)-3-hydroxypyrrolidin-1-yl]carbonyl]-N-[3-[(1S)-1-[(4-methyl-4H-1,2,4-triazol-3-yl)sulfanyl]ethyl]phenyl]pyridine-2-carboxamide] | 0.601 to 0.8 | 0.801 to 1 | < 0.05 | < 0.05 | ≤ 500 | 0.1 to 0.3 | 1.01 to 1.3 | 1.01 to 1.3 | 1.01 to 1.3 | –
